{"source": "patent US6872696B2", "about": "“Particle with substituted polyvinyl alcohol coating” (Genencor International, Inc., priority 2000, dated 2005)", "origin": "cited, not measured here", "data": [{"conditions": "neutral unreacted compound in water, 25 degrees C", "values": [{"smiles": "CCS", "note": "[ethanethiol]", "Solubility g/100 ml H2O": "0.67 g/100 ml H2O"}, {"smiles": "OCCS", "note": "[2-mercaptoethanol]", "Solubility g/100 ml H2O": "infinite"}, {"smiles": "O=C(O)/C=C\\C(=O)O", "note": "[maleic]", "Solubility g/100 ml H2O": "infinite"}]}]}
